According to patent US10562857B2 (AFASCI, Inc., priority 2015, dated 2020):
Where two headings read alike, the source gives them in different places.

What was measured:
Format in all cases: cell-based
Cav3.2 channel = target: T1, Cav3.2 channel (Homo sapiens, UniProt O95180); assay: Whole-cell patch clamp of T-type Cav3.2 channel expressed in HEK293 cells
T1 construct: expressed in transfected cells; host or cells: HEK-293, tetracycline inducible expression system (Invitrogen)

[1] = target: Cav2.2 (N-type Ca channel) (Homo sapiens, UniProt Q00975); assay: Patch clamp of Cav2.2 N-type Ca channel; conditions: Table 2
Cardiac Na+ channels = target: T2, Cardiac Na+ channels (Homo sapiens, UniProt Q14524); assay: Cardiac sodium currents in human iPSC-derived cardiomyocytes; conditions: for IC50: human iPSC cardiomyocytes; for inhibition at 3 µM: values in brackets, read-out: Cardiac Na+ (%) inh. at 3 μM
T2 construct: host or cells: human iPSC-derived cardiomyocytes
T2 sequence (Q14524 whole entry): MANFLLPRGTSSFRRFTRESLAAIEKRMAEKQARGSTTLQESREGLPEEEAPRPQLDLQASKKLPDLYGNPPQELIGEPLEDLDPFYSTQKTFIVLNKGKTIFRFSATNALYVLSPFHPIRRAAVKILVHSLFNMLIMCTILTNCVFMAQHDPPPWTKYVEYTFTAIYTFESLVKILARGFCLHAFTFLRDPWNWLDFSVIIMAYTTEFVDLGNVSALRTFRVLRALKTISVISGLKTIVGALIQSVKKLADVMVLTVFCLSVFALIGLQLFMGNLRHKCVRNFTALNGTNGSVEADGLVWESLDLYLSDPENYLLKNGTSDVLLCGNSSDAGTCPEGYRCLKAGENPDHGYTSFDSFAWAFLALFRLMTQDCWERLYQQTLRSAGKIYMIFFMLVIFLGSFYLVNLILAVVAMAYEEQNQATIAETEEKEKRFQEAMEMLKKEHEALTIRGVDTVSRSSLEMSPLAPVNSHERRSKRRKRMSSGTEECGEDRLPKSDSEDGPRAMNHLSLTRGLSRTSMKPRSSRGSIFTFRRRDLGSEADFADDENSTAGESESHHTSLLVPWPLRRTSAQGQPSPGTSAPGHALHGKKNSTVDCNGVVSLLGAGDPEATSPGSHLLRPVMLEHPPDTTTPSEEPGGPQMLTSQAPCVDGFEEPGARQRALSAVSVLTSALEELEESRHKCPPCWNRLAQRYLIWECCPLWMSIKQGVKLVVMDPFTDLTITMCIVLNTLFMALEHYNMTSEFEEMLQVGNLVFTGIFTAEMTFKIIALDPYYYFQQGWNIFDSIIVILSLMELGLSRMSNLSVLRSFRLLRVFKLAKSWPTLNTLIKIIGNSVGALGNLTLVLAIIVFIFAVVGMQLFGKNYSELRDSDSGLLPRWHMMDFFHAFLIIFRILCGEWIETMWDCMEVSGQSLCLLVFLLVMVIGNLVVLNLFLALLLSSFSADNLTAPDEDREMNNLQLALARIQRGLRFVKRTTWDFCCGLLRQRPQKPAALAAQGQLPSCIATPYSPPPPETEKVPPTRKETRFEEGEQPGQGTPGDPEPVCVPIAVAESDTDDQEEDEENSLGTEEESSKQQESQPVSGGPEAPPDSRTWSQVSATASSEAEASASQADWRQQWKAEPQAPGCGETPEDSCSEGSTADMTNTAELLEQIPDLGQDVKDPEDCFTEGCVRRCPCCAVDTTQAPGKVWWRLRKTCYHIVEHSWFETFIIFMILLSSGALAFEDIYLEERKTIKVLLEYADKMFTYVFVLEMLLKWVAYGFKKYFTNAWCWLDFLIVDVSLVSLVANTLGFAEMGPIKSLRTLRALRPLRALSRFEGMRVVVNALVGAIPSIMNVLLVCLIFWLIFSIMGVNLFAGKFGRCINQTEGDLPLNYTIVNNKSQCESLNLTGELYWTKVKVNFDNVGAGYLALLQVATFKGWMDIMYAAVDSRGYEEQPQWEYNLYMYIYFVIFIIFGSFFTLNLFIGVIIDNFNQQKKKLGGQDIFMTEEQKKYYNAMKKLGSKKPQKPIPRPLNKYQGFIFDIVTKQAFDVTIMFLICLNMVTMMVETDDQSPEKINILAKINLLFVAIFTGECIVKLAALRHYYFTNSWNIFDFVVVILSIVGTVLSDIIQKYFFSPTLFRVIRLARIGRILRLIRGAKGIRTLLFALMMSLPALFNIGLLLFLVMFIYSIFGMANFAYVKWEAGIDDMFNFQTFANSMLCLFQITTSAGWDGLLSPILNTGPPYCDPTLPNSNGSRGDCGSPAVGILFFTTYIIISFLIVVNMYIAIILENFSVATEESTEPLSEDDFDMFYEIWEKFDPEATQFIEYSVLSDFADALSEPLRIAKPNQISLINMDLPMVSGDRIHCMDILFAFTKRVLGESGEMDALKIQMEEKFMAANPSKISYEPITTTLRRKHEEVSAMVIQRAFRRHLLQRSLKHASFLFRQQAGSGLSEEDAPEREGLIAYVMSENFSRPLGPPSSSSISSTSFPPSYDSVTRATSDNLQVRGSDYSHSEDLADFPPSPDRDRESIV
Procedure: Cardiac sodium channels play a critical role in heart contraction. Inhibition of these sodium channels could potentially cause severe unwanted side effects. Therefore the representative example compounds in Table 2 were tested in cardiac sodium channels. Cardiomyocytes derived from human induced pluripotent stem cells (iPSC-CM) were obtained from Axol Bioscience Ltd (Cambridge, UK). Cells were thawed and grown on matrigel coated glass coverslips in Cardiomyocyte Maintenance Medium (Axol Bioscience). […] The internal solution was composed (in mM) of 120 KF, 10 HEPES, 11 EGTA, 1 CaCl2, 1 MgCl2, 10 TEA-Cl (pH 7.2 adjusted with KOH). Sodium currents were recorded at a holding potential of −100 mV and depolarized to −20 mV. Cells were incubated with example compounds until currents reached a steady-state level. To determine IC50 values, example compounds were applied gradually from low to high concentrations. The current responses were normalized to the control, percent inhibition was calculated and a sigmoidal dose response curve was plotted to determine IC50 values as described above.

[2] = Table 1, tested at at least 4 concentrations, read-out: IC50
[3] = Table 3A, read-out: Cav3.2 IC50

T1 sequence (O95180 whole entry): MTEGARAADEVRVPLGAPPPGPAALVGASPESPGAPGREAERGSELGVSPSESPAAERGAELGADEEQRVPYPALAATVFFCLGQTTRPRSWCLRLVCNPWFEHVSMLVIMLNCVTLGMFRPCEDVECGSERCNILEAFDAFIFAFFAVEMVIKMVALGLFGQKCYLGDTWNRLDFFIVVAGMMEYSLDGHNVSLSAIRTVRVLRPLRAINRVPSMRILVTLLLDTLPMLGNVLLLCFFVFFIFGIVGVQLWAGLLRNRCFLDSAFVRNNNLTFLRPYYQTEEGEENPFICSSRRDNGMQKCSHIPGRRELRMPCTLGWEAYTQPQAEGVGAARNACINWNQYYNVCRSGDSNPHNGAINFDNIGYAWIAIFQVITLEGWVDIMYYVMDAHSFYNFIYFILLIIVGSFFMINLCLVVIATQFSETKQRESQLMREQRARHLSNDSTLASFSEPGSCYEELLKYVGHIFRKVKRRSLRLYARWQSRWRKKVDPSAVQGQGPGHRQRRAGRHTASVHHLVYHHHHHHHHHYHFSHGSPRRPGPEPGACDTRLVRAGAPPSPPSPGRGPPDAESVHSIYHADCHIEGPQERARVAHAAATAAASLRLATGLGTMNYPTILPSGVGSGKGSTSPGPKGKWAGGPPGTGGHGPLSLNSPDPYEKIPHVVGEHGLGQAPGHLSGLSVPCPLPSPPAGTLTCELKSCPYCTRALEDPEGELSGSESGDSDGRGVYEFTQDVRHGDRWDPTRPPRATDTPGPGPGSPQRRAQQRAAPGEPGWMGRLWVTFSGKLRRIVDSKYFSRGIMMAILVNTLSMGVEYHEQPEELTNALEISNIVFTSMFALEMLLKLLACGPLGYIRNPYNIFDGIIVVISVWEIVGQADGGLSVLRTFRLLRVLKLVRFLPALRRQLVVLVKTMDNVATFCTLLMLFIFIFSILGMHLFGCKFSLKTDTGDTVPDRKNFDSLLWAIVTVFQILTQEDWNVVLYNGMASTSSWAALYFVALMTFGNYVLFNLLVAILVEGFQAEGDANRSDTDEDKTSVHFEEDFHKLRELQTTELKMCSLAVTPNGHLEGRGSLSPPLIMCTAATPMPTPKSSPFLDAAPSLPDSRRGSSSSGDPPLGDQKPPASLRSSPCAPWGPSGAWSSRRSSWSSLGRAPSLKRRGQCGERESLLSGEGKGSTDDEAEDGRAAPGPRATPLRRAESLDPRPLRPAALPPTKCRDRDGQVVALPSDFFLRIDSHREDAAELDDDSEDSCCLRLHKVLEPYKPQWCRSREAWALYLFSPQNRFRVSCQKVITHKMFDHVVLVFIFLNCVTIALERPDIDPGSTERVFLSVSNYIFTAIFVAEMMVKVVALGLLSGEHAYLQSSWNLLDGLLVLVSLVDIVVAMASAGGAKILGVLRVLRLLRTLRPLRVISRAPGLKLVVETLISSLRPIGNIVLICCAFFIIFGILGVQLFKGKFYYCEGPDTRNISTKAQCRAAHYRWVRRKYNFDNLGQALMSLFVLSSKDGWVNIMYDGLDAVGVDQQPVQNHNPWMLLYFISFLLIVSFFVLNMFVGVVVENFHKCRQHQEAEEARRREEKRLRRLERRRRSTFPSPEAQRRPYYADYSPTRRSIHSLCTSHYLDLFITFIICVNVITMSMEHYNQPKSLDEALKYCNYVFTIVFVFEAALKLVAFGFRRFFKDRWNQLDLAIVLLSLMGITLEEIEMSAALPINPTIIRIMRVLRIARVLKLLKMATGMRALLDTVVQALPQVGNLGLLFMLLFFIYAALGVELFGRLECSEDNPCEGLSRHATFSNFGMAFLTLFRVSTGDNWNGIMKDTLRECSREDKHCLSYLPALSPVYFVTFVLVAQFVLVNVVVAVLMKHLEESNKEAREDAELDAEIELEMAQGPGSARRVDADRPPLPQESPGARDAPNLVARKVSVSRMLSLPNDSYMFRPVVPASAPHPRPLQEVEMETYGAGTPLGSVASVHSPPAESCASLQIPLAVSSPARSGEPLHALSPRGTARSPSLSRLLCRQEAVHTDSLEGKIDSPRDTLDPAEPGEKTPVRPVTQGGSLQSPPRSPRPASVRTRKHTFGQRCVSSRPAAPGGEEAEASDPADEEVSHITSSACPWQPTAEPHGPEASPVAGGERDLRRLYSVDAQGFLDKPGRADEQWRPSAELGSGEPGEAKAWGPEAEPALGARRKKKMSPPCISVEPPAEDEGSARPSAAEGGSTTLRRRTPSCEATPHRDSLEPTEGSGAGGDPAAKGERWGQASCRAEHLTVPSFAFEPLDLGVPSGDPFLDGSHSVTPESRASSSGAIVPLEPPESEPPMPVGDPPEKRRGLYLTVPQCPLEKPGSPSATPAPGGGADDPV

SMILES	IC50 (Cav3.2 channel; [2]) [nM]	IC50 (Cav3.2 channel; Table 2, read-out: Cav3.2 IC50) [nM]	IC50 [1] [nM]	IC50 (Cardiac Na+ channels) [nM]	IC50 (Cav3.2 channel; read-out: Cav3.2 IC50) [nM]	IC50 (Cav3.2 channel; read-out: IC50) [nM]	inhibition at 3 µM (Cardiac Na+ channels) [%]	% Use-Dep (use-dependent drug action) (Cav3.2 channel; Table 3A) [%]	IC50 (Cav3.2 channel; [3]) [nM]
CC(C)(C)NC(=O)CN1CCC2(CC1)C[C@H]2NC(=O)c1cc(Cl)cc(Cl)c1 (single isomer, unassigned) [Example 57, (R)—N-(6-(2-(tert-Butylamino)-2-oxoethyl)-6-azaspiro[2.5]octan-1-yl)-3,5-dichlorobenzamide or (S)—N-(6-(2-(tert-Butylamino)-2-oxoethyl)-6-azaspiro[2.5]octan-1-yl)-3,5-dichlorobenzamide]	60	60	> 30000	50900					
CC(C)(C)NC(=O)CN1CCC2(CC1)C[C@H]2C(=O)Nc1cc(C(F)(F)F)cc(C(F)(F)F)c1 (single isomer, unassigned) [Example 132, (R)—N-(3,5-Bis(trifluoromethyl)phenyl)-6-(2-(tert-butylamino)-2-oxoethyl)-6-azaspiro[2.5]octane-1-carboxamide or (S)—N-(3,5-Bis(trifluoromethyl)phenyl)-6-(2-(tert-butylamino)-2-oxoethyl)-6-azaspiro[2.5]octane-1-carboxamide]			3100	51600	140	140			
CC(C)(C)NC(=O)CN1CCC2(CC1)C[C@H]2NC(=O)C12CC3CC(CC(C3)C1)C2 (single isomer, unassigned) [Example 145, N—((R)-6-(2-(tert-butylamino)-2-oxoethyl)-6-azaspiro[2.5]octan-1-yl)adamantane-1-carboxamide or N—((S)-6-(2-(tert-butylamino)-2-oxoethyl)-6-azaspiro[2.5]octan-1-yl)adamantane-1-carboxamide]	140	140	15600				0		
CC(C)(C)NC(=O)CN1CCC2(CC1)C[C@H]2NC(=O)c1cc(F)cc(C(F)(F)F)c1 (single isomer, unassigned) [Example 130, (R)—N-(6-(2-(tert-Butylamino)-2-oxoethyl)-6-azaspiro[2.5]octan-1-yl)-3-fluoro-5-(trifluoromethyl)benzamide or (S)—N-(6-(2-(tert-Butylamino)-2-oxoethyl)-6-azaspiro[2.5]octan-1-yl)-3-fluoro-5-(trifluoromethyl)benzamide]	180	180	> 30000	31400					
CC(C)(C)NC(=O)CN1CCC2(CC1)CC2C(=O)Nc1cc(F)cc(C(F)(F)F)c1 (centres unmarked) [Example 141, 6-(2-(tert-Butylamino)-2-oxoethyl)-N-(3-fluoro-5-(trifluoromethyl)phenyl)-6-azaspiro[2.5]octane-1-carboxamide]	180	180	5100				28		
CC(C)(C)CCN1CCC2(CC1)C[C@H]2NC(=O)c1cc(C(F)(F)F)ccc1Cl (single isomer, unassigned) [Example 147, (R)-2-Chloro-N-(6-(3,3-dimethylbutyl)-6-azaspiro[2.5]octan-1-yl)-5-(trifluoromethyl)benzamide or (S)-2-Chloro-N-(6-(3,3-dimethylbutyl)-6-azaspiro[2.5]octan-1-yl)-5-(trifluoromethyl)benzamide]	130	130	5600	43000					
CC(C)(C)NC(=O)CN1CCC2(CC1)CC2NC(=O)c1cc(F)cc(Cl)c1 (single isomer, unassigned) [Example 128, (S)—N-(6-(2-(tert-Butylamino)-2-oxoethyl)-6-azaspiro[2.5]octan-1-yl)-3-chloro-5-fluorobenzamide or (R)—N-(6-(2-(tert-Butylamino)-2-oxoethyl)-6-azaspiro[2.5]octan-1-yl)-3-chloro-5-fluorobenzamide]	110	90	> 10000	83500				21.3	89
CC(C)(C)NC(=O)CN1CCC(CNC(=O)c2cc(F)cc(Cl)c2)CC1 [Z944, reference compound]		190	> 30000	21400				17.6	200
CC(C)(C)CCN1CCC2(CC1)C[C@H]2NC(=O)c1cc(C(F)(F)F)cc(C(F)(F)F)c1 (single isomer, unassigned) [Example 146, (R)—N-(6-(3,3-dimethylbutyl)-6-azaspiro[2.5]octan-1-yl)-3,5-bis(trifluoromethyl)benzamide or (S)—N-(6-(3,3-dimethylbutyl)-6-azaspiro[2.5]octan-1-yl)-3,5-bis(trifluoromethyl)benzamide]	70	70	2500	27800					
CC(C)(C)CCN1C[C@@H]2[C@@H](CNC(=O)c3cc(Cl)cc(Cl)c3)[C@@H]2C1 [ML218, 3,5-Dichloro-N-[[(1α,5α,6-exo,6α)-3-(3,3-dimethylbutyl)-3-azabicyclo[3.1.0]hex-6-yl]methyl]benzamide, reference compound]		310	20700	39800				19.2	310
CC(C)(C)CCN1CCC2(CC1)CC2NC(=O)c1cc(F)cc(Cl)c1 (centres unmarked) [Example 28, 3-Chloro-N-(6-(3,3-dimethylbutyl)-6-azaspiro[2.5]octan-1-yl)-5-fluorobenzamide]	70	70	9400	37200					
CC(C)(C)NC(=O)CN1CCC2(CC1)C[C@H]2NC(=O)c1cc(C(F)(F)F)cc(C(F)(F)F)c1 (single isomer, unassigned) [Example 144, ((R)—N-(6-(2-(tert-butylamino)-2-oxoethyl)-6-azaspiro[2.5]octan-1-yl)-3,5-bis(trifluoromethyl)benzamide or (S)—N-(6-(2-(tert-butylamino)-2-oxoethyl)-6-azaspiro[2.5]octan-1-yl)-3,5-bis(trifluoromethyl)benzamide]	80	80	12300	19200					
CC(C)(C)NC(=O)CN1CCC2(CC1)C[C@H]2NC(=O)c1cc(F)cc(Cl)c1 (single isomer, unassigned) [Example 129, (R)—N-(6-(2-(tert-Butylamino)-2-oxoethyl)-6-azaspiro[2.5]octan-1-yl)-3-chloro-5-fluorobenzamide or (S)—N-(6-(2-(tert-Butylamino)-2-oxoethyl)-6-azaspiro[2.5]octan-1-yl)-3-chloro-5-fluorobenzamide]	870	870	> 30000						
O=C(Nc1nnc(-c2ccccc2)o1)c1ccc(Cl)s1 [Example 115, 5-Chloro-N-(5-phenyl-1,3,4-oxadiazol-2-yl)thiophene-2-carboxamide]	930								
CC(C)(C)NC(=O)CN1CCC2(CC1)CC2NC(=O)c1cc(F)cc(Cl)c1 (centres unmarked) [Example 17, N-(6-(2-(tert-Butylamino)-2-oxoethyl)-6-azaspiro[2.5]octan-1-yl)-3-chloro-5-fluorobenzamide]	240	240	> 30000						
